From the supplement of paper PMC10307832

How the values were obtained:
Test in all cases: relative viability (nuclei count vs DMSO), 5 days (fraction); higher = more cells survive
Gemcitabine + Phenformin = compound: Nc1ccn([C@@H]2O[C@H](CO)[C@@H](O)C2(F)F)c(=O)n1 [Gemcitabine] + N=C(N)NC(=N)NCCc1ccccc1 [Phenformin] (partner 250 µM)
How it was run: (§1)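 Each reported value is a median over duplicate plates. It expresses relative viability: treated-well nuclei count divided by vehicle-well nuclei count. Lung cancer cell lines in 1536-well plates were dosed by pin tool a day after seeding, alone with one drug or with a fixed anchor-drug dose plus five library-drug doses (not always all listed) in √10 steps, and nuclei were counted after 5 days.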

Gemcitabine + Pemetrexed = compound: Nc1ccn([C@@H]2O[C@H](CO)[C@@H](O)C2(F)F)c(=O)n1 [Gemcitabine] + Nc1nc2[nH]cc(CCc3ccc(C(=O)N[C@@H](CCC(=O)O)C(=O)O)cc3)c2c(=O)[nH]1 [Pemetrexed] (partner 0.2 µM)
How it was run: as §1

Gemcitabine + Dasatinib = compound: Nc1ccn([C@@H]2O[C@H](CO)[C@@H](O)C2(F)F)c(=O)n1 [Gemcitabine] + Cc1nc(Nc2ncc(C(=O)Nc3c(C)cccc3Cl)s2)cc(N2CCN(CCO)CC2)n1 [Dasatinib] (partner 0.075 µM)
How it was run: as §1

Gemcitabine + Tozasertib = compound: Nc1ccn([C@@H]2O[C@H](CO)[C@@H](O)C2(F)F)c(=O)n1 [Gemcitabine] + Cc1cc(Nc2cc(N3CCN(C)CC3)nc(Sc3ccc(NC(=O)C4CC4)cc3)n2)n[nH]1 [Tozasertib] (partner 0.1 µM)
How it was run: as §1

Gemcitabine + Vorinostat = compound: Nc1ccn([C@@H]2O[C@H](CO)[C@@H](O)C2(F)F)c(=O)n1 [Gemcitabine] + O=C(CCCCCCC(=O)Nc1ccccc1)NO [Vorinostat] (partner 1 µM)
How it was run: as §1

Gemcitabine + Olaparib = compound: Nc1ccn([C@@H]2O[C@H](CO)[C@@H](O)C2(F)F)c(=O)n1 [Gemcitabine] + O=C(c1cc(Cc2n[nH]c(=O)c3ccccc23)ccc1F)N1CCN(C(=O)C2CC2)CC1 [Olaparib] (partner 8 µM)
How it was run: as §1

[1] = compound: Nc1ccn([C@@H]2O[C@H](CO)[C@@H](O)C2(F)F)c(=O)n1 [Gemcitabine] + CC(=O)c1c(C)c2cnc(Nc3ccc(N4CCNCC4)cn3)nc2n(C2CCCC2)c1=O [Palbociclib] (partner 0.5 µM)
How it was run: as §1

Gemcitabine + OSI-027 = compound: Nc1ccn([C@@H]2O[C@H](CO)[C@@H](O)C2(F)F)c(=O)n1 [Gemcitabine] + COc1cccc2cc(-c3nc([C@H]4CC[C@H](C(=O)O)CC4)n4ncnc(N)c34)[nH]c12 [OSI-027] (partner 0.5 µM)
How it was run: as §1

Gemcitabine + Luminespib = compound: Nc1ccn([C@@H]2O[C@H](CO)[C@@H](O)C2(F)F)c(=O)n1 [Gemcitabine] + CCNC(=O)c1noc(-c2cc(C(C)C)c(O)cc2O)c1-c1ccc(CN2CCOCC2)cc1 [Luminespib] (partner 0.01 µM)
How it was run: as §1

Gemcitabine + AZD7762 = compound: Nc1ccn([C@@H]2O[C@H](CO)[C@@H](O)C2(F)F)c(=O)n1 [Gemcitabine] + NC(=O)Nc1cc(-c2cccc(F)c2)sc1C(=O)N[C@H]1CCCNC1 [AZD7762] (partner 0.2 µM)
How it was run: as §1

Gemcitabine + Trametinib = compound: Nc1ccn([C@@H]2O[C@H](CO)[C@@H](O)C2(F)F)c(=O)n1 [Gemcitabine] + CC(=O)Nc1cccc(-n2c(=O)n(C3CC3)c(=O)c3c(Nc4ccc(I)cc4F)n(C)c(=O)c(C)c32)c1 [Trametinib] (partner 0.02 µM)
How it was run: as §1

Gemcitabine + Decitabine = compound: Nc1ccn([C@@H]2O[C@H](CO)[C@@H](O)C2(F)F)c(=O)n1 [Gemcitabine] + Nc1ncn([C@H]2C[C@H](O)[C@@H](CO)O2)c(=O)n1 [Decitabine] (partner 2 µM)
How it was run: as §1

Gemcitabine = compound: Nc1ccn([C@@H]2O[C@H](CO)[C@@H](O)C2(F)F)c(=O)n1 [Gemcitabine]
How it was run: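 Lung cancer cell lines received five library-drug doses (not always all listed) spaced by √10, pinned on vehicle-anchored 1536-well plates after an overnight stay at 37 °C. Five days later, with no medium change, nuclei were Hoechst-stained, imaged at 4× and counted with MetaXpress. Viability is treated-well nuclei relative to vehicle-well nuclei, as a median across plates. Passing plates had control CV below 25% and at least one doubling.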

Gemcitabine + Foretinib = compound: Nc1ccn([C@@H]2O[C@H](CO)[C@@H](O)C2(F)F)c(=O)n1 [Gemcitabine] + COc1cc2c(Oc3ccc(NC(=O)C4(C(=O)Nc5ccc(F)cc5)CC4)cc3F)ccnc2cc1OCCCN1CCOCC1 [Foretinib] (partner 0.25 µM)
How it was run: as §1

In the case of NCI-H522, the relative viability (Gemcitabine + Phenformin; first compound 0.001 µM) is reported as 0.653, the relative viability (Gemcitabine + Phenformin; first compound 0.003162 µM) is reported as 0.524 and the relative viability (Gemcitabine + Phenformin; first compound 0.01 µM) is reported as 0.47. For the same cell line, the relative viability (Gemcitabine + Phenformin; first compound 0.03162 µM) was 0.396, the relative viability (Gemcitabine + Phenformin; first compound 0.1 µM) was 0.384 and the relative viability (Gemcitabine + Pemetrexed; first compound 0.001 µM) was 0.954. The relative viability (Gemcitabine + Pemetrexed; first compound 0.003162 µM) was 0.953, the relative viability (Gemcitabine + Pemetrexed; first compound 0.01 µM) was 0.419 and the relative viability (Gemcitabine + Pemetrexed; first compound 0.03162 µM) was 0.367. For the same cell line, the relative viability (Gemcitabine + Pemetrexed; first compound 0.1 µM) was 0.316, the relative viability (Gemcitabine + Dasatinib; first compound 0.001 µM) was 0.987 and the relative viability (Gemcitabine + Dasatinib; first compound 0.003162 µM) was 0.722. The relative viability (Gemcitabine + Dasatinib; first compound 0.01 µM) was 0.384, the relative viability (Gemcitabine + Dasatinib; first compound 0.03162 µM) was 0.42 and the relative viability (Gemcitabine + Dasatinib; first compound 0.1 µM) was 0.36. For the same cell line, the relative viability (Gemcitabine + Tozasertib; first compound 0.001 µM) was 0.555, the relative viability (Gemcitabine + Tozasertib; first compound 0.003162 µM) was 0.396 and the relative viability (Gemcitabine + Tozasertib; first compound 0.01 µM) was 0.379. The relative viability (Gemcitabine + Tozasertib; first compound 0.03162 µM) was 0.354, the relative viability (Gemcitabine + Tozasertib; first compound 0.1 µM) was 0.312 and the relative viability (Gemcitabine + Vorinostat; first compound 0.001 µM) was 0.829. It also gave a relative viability (Gemcitabine + Vorinostat; first compound 0.003162 µM) of 0.63, a relative viability (Gemcitabine + Vorinostat; first compound 0.01 µM) of 0.4 and a relative viability (Gemcitabine + Vorinostat; first compound 0.03162 µM) of 0.331. The relative viability (Gemcitabine + Vorinostat; first compound 0.1 µM) was 0.294, the relative viability (Gemcitabine + Olaparib; first compound 0.001 µM) was 0.639 and the relative viability (Gemcitabine + Olaparib; first compound 0.003162 µM) was 0.641. The relative viability (Gemcitabine + Olaparib; first compound 0.01 µM) was 0.323, the relative viability (Gemcitabine + Olaparib; first compound 0.03162 µM) was 0.306 and the relative viability (Gemcitabine + Olaparib; first compound 0.1 µM) was 0.3. For the same cell line, the relative viability ([1]; first compound 0.001 µM) was 0.885, the relative viability ([1]; first compound 0.003162 µM) was 0.729 and the relative viability ([1]; first compound 0.01 µM) was 0.528. The relative viability ([1]; first compound 0.03162 µM) was 0.394, the relative viability ([1]; first compound 0.1 µM) was 0.364 and the relative viability (Gemcitabine + OSI-027; first compound 0.001 µM) was 0.653. For the same cell line, the relative viability (Gemcitabine + OSI-027; first compound 0.003162 µM) was 0.463, the relative viability (Gemcitabine + OSI-027; first compound 0.01 µM) was 0.384 and the relative viability (Gemcitabine + OSI-027; first compound 0.03162 µM) was 1.12. For the same cell line, the relative viability (Gemcitabine + OSI-027; first compound 0.1 µM) was 0.393, the relative viability (Gemcitabine + Luminespib; first compound 0.001 µM) was 1.14 and the relative viability (Gemcitabine + Luminespib; first compound 0.003162 µM) was 1.08. The relative viability (Gemcitabine + Luminespib; first compound 0.01 µM) was 0.727, the relative viability (Gemcitabine + Luminespib; first compound 0.03162 µM) was 0.392 and the relative viability (Gemcitabine + Luminespib; first compound 0.1 µM) was 0.368. For the same cell line, the relative viability (Gemcitabine + AZD7762; first compound 0.001 µM) was 0.709, the relative viability (Gemcitabine + AZD7762; first compound 0.003162 µM) was 0.384 and the relative viability (Gemcitabine + AZD7762; first compound 0.01 µM) was 0.286. For the same cell line, the relative viability (Gemcitabine + AZD7762; first compound 0.03162 µM) was 0.323, the relative viability (Gemcitabine + AZD7762; first compound 0.1 µM) was 0.204 and the relative viability (Gemcitabine + Trametinib; first compound 0.001 µM) was 0.705. The relative viability (Gemcitabine + Trametinib; first compound 0.003162 µM) was 0.628, the relative viability (Gemcitabine + Trametinib; first compound 0.01 µM) was 0.36 and the relative viability (Gemcitabine + Trametinib; first compound 0.03162 µM) was 0.347. For the same cell line, the relative viability (Gemcitabine + Trametinib; first compound 0.1 µM) was 0.319, the relative viability (Gemcitabine + Decitabine; first compound 0.001 µM) was 0.653 and the relative viability (Gemcitabine + Decitabine; first compound 0.003162 µM) was 0.577. It also gave a relative viability (Gemcitabine + Decitabine; first compound 0.01 µM) of 0.502, a relative viability (Gemcitabine + Decitabine; first compound 0.03162 µM) of 0.352 and a relative viability (Gemcitabine + Decitabine; first compound 0.1 µM) of 0.342. It also gave a relative viability (Gemcitabine; 0.001 µM) of 1.12, a relative viability (Gemcitabine; 0.003162 µM) of 0.812 and a relative viability (Gemcitabine; 0.01 µM) of 0.418. The relative viability (Gemcitabine; 0.03162 µM) was 0.42 and the relative viability (Gemcitabine; 0.1 µM) was 0.388.
For NCI-H1623, the relative viability (Gemcitabine + Phenformin; first compound 0.001 µM) was 0.526, the relative viability (Gemcitabine + Phenformin; first compound 0.003162 µM) was 0.49 and the relative viability (Gemcitabine + Phenformin; first compound 0.01 µM) was 0.201. It also gave a relative viability (Gemcitabine + Phenformin; first compound 0.03162 µM) of 0.369, a relative viability (Gemcitabine + Phenformin; first compound 0.1 µM) of 0.164 and a relative viability (Gemcitabine + Dasatinib; first compound 0.001 µM) of 0.485. The relative viability (Gemcitabine + Dasatinib; first compound 0.003162 µM) was 0.431, the relative viability (Gemcitabine + Dasatinib; first compound 0.01 µM) was 0.175 and the relative viability (Gemcitabine + Dasatinib; first compound 0.03162 µM) was 0.139. For the same cell line, the relative viability (Gemcitabine + Dasatinib; first compound 0.1 µM) was 0.143, the relative viability (Gemcitabine + Tozasertib; first compound 0.001 µM) was 0.333 and the relative viability (Gemcitabine + Tozasertib; first compound 0.003162 µM) was 0.222. For the same cell line, the relative viability (Gemcitabine + Tozasertib; first compound 0.01 µM) was 0.173, the relative viability (Gemcitabine + Tozasertib; first compound 0.03162 µM) was 0.16 and the relative viability (Gemcitabine + Tozasertib; first compound 0.1 µM) was 0.17. The relative viability (Gemcitabine + Foretinib; first compound 0.001 µM) was 0.741, the relative viability (Gemcitabine + Foretinib; first compound 0.003162 µM) was 0.518 and the relative viability (Gemcitabine + Foretinib; first compound 0.01 µM) was 0.268. It also gave a relative viability (Gemcitabine + Foretinib; first compound 0.03162 µM) of 0.229, a relative viability (Gemcitabine + Foretinib; first compound 0.1 µM) of 0.194 and a relative viability (Gemcitabine + OSI-027; first compound 0.001 µM) of 0.349. It also gave a relative viability (Gemcitabine + OSI-027; first compound 0.003162 µM) of 0.29, a relative viability (Gemcitabine + OSI-027; first compound 0.01 µM) of 0.254 and a relative viability (Gemcitabine + OSI-027; first compound 0.03162 µM) of 0.245. The relative viability (Gemcitabine + OSI-027; first compound 0.1 µM) was 0.237, the relative viability (Gemcitabine + Luminespib; first compound 0.001 µM) was 0.43 and the relative viability (Gemcitabine + Luminespib; first compound 0.003162 µM) was 0.308. The relative viability (Gemcitabine + Luminespib; first compound 0.01 µM) was 0.279, the relative viability (Gemcitabine + Luminespib; first compound 0.03162 µM) was 0.236 and the relative viability (Gemcitabine + Luminespib; first compound 0.1 µM) was 0.234. It also gave a relative viability (Gemcitabine; 0.001 µM) of 0.743, a relative viability (Gemcitabine; 0.003162 µM) of 0.255 and a relative viability (Gemcitabine; 0.01 µM) of 0.218. For the same cell line, the relative viability (Gemcitabine; 0.03162 µM) was 0.188 and the relative viability (Gemcitabine; 0.1 µM) was 0.178.
